From US20260250318A1, “COMPOSITIONS AND METHODS FOR CROSSING THE BLOOD BRAIN BARRIER” (VOYAGER THERAPEUTICS, INC., priority 2022, published 2026)

Tests used:
[1] = tested on: brains, heart, liver, muscle, and DRG of the NHPs; assay: Maturation of TTM-001 and TTM-002 capsids, NGS enrichment in NHP tissues; format: in vivo; details: relative to AAV9 control
Outline: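 Variants carry mutations within and flanking the loop IV peptide insert: positions 450–466 were triplet-randomized, while positions 449–466 received low-frequency point mutations. The combined pool went into two NHPs, and each peptide was scored by NGS enrichment ratio against AAV9.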

[2] = tested on: brain; assay: Matured TTM-001 and TTM-002 variants, NGS enrichment in mouse brain; format: in vivo, mice; details: NGS fold-enrichment, relative to AAV9 control
[3] = NGS fold-enrichment of RNA, NHP brain
[4] = NGS fold-enrichment, DRG of NHPs
[5] = NGS fold-enrichment, NHP liver DNA
[6] = NGS fold-enrichment, NHP liver RNA
[7] = NGS fold-enrichment, NHP muscle
[8] = NGS fold-enrichment, RNA, brain of NHPs
[9] = NGS fold-enrichment, heart of NHPs
[10] = NGS fold-enrichment, liver DNA of NHPs
[11] = NGS fold-enrichment, liver RNA of NHPs
[12] = NGS fold-enrichment, muscle of NHPs

| Sequence | Fold Enrichment relative to AAV9, Brain (NHP) [1, 3] | Fold Enrichment relative to AAV9, DRG (NHP) [1, 4] | Fold Enrichment relative to AAV9, DRG (NHP) ([1]; NGS fold-enrichment, NHP DRG) | Fold Enrichment relative to AAV9, Heart (NHP) ([1]; NGS fold-enrichment, NHP heart) | Fold Enrichment relative to AAV9, Liver DNA (NHP) [1, 5] | Fold Enrichment relative to AAV9, Liver RNA (NHP) [1, 6] | Fold Enrichment relative to AAV9, Muscle (NHP) [1, 7] | Fold Enrichment relative to AAV9, Brain (NHP) [1, 8] | Fold Enrichment relative to AAV9, Heart (NHP) [1, 9] | Fold Enrichment relative to AAV9, Liver DNA (NHP) [1, 10] | Fold Enrichment relative to AAV9, Liver RNA (NHP) [1, 11] | Fold Enrichment relative to AAV9, Muscle (NHP) [1, 12] | Fold Enrichment relative to AAV9, Brain (Mouse) ([2]; brain of mice) | Fold Enrichment relative to AAV9, Brain (Mouse) ([2]; mouse brain) |
| --- | --- | --- | --- | --- | --- | --- | --- | --- | --- | --- | --- | --- | --- | --- |
| KTIDGGGSPHSKAQNKQT | 85.019 fold | 0.000 fold | 0.000 fold | 0.000 fold | 0.477 fold | 0.000 fold | 0.000 fold | 85.019 fold | 0.000 fold | 0.477 fold | 0.000 fold | 0.000 fold | 55.517 fold | 55.517 fold |
| KTIDGSGSPHSKAQNQQH | 79.090 fold | 0.000 fold | 0.000 fold | 0.000 fold | 0.049 fold | 0.136 fold | 0.000 fold | 79.090 fold | 0.000 fold | 0.049 fold | 0.136 fold | 0.000 fold | 57.914 fold | 57.914 fold |
| KTDKSSGSPHSKAQNQQT | 79.470 fold | 0.055 fold | 0.055 fold | 0.012 fold | 0.367 fold | 1.437 fold | 0.000 fold | 79.470 fold | 0.012 fold | 0.367 fold | 1.437 fold | 0.000 fold | 141.351 fold | 141.351 fold |
| KTEHLSGSPHSKAQNQQT | 83.080 fold | 0.000 fold | 0.000 fold | 0.000 fold | 0.189 fold | 0.021 fold | 0.012 fold | 83.080 fold | 0.000 fold | 0.189 fold | 0.021 fold | 0.012 fold | 69.494 fold | 69.494 fold |
